In the supplement of paper PMC10307832:

Legend:
Test in all cases: relative viability (nuclei count vs DMSO), 5 days (fraction); higher = more cells survive
Quizartinib + Tozasertib = compound: CC(C)(C)c1cc(NC(=O)Nc2ccc(-c3cn4c(n3)sc3cc(OCCN5CCOCC5)ccc34)cc2)no1 [Quizartinib] + Cc1cc(Nc2cc(N3CCN(C)CC3)nc(Sc3ccc(NC(=O)C4CC4)cc3)n2)n[nH]1 [Tozasertib] (partner 0.1 µM)
Procedure, shortened: (§1)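 Relative viability is defined as nuclei in treated wells over nuclei in vehicle wells. Duplicate plates were run and medians reported. Lung cancer cell lines in 1536-well plates were dosed by pin tool one day after seeding, with one drug or with a fixed anchor-drug dose plus five library-drug doses (not always all listed) in √10 steps, and nuclei were counted after 5 days.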

YM155 + Navitoclax = compound: COCC[n+]1c2c(n(Cc3cnccn3)c1C)C(=O)c1ccccc1C2=O [YM155] + CC1(C)CCC(c2ccc(Cl)cc2)=C(CN2CCN(c3ccc(C(=O)NS(=O)(=O)c4ccc(N[C@H](CCN5CCOCC5)CSc5ccccc5)c(S(=O)(=O)C(F)(F)F)c4)cc3)CC2)C1 [Navitoclax] (partner 0.5 µM)
Procedure, shortened: as §1

YM155 + Linsitinib = compound: COCC[n+]1c2c(n(Cc3cnccn3)c1C)C(=O)c1ccccc1C2=O [YM155] + C[C@]1(O)C[C@@H](c2nc(-c3ccc4ccc(-c5ccccc5)nc4c3)c3c(N)nccn32)C1 [Linsitinib] (partner 1 µM)
Procedure, shortened: as §1

YM155 + Palbociclib = compound: COCC[n+]1c2c(n(Cc3cnccn3)c1C)C(=O)c1ccccc1C2=O [YM155] + CC(=O)c1c(C)c2cnc(Nc3ccc(N4CCNCC4)cn3)nc2n(C2CCCC2)c1=O [Palbociclib] (partner 0.5 µM)
Procedure, shortened: as §1

| Cell Line | relative viability (Quizartinib + Tozasertib; first compound 0.001 µM) | relative viability (Quizartinib + Tozasertib; first compound 0.003162 µM) | relative viability (Quizartinib + Tozasertib; first compound 0.01 µM) | relative viability (Quizartinib + Tozasertib; first compound 0.03162 µM) | relative viability (Quizartinib + Tozasertib; first compound 0.1 µM) | relative viability (YM155 + Navitoclax; first compound 0.002 µM) | relative viability (YM155 + Navitoclax; first compound 0.006325 µM) | relative viability (YM155 + Navitoclax; first compound 0.02 µM) | relative viability (YM155 + Navitoclax; first compound 0.06325 µM) | relative viability (YM155 + Linsitinib; first compound 0.002 µM) | relative viability (YM155 + Linsitinib; first compound 0.006325 µM) | relative viability (YM155 + Linsitinib; first compound 0.02 µM) | relative viability (YM155 + Linsitinib; first compound 0.06325 µM) | relative viability (YM155 + Palbociclib; first compound 0.002 µM) | relative viability (YM155 + Palbociclib; first compound 0.006325 µM) | relative viability (YM155 + Palbociclib; first compound 0.02 µM) | relative viability (YM155 + Palbociclib; first compound 0.06325 µM) |
| --- | --- | --- | --- | --- | --- | --- | --- | --- | --- | --- | --- | --- | --- | --- | --- | --- | --- |
| HCC-78 | 0.453 | 0.325 | 0.365 | 0.368 | 0.384 | 0.79 | 0.717 | 0.767 | 0.942 | 0.615 | 0.494 | 0.486 | 0.598 | 0.395 | 0.43 | 0.483 | 0.504 |
| HCC-366 | 0.11 | 0.0914 | 0.0628 | 0.0575 | 0.0582 | 1.08 | 1.04 | 0.989 | 0.843 | 0.683 | 0.61 | 0.659 | 0.676 | 0.37 | 0.412 | 0.439 | 0.27 |
| HCC-827 | 0.356 | 0.516 | 0.458 | 0.405 | 0.411 | 1.03 | 1.11 | 1.01 | 0.992 | 0.954 | 1.01 | 0.928 | 0.941 | 0.511 | 0.481 | 0.505 | 0.552 |
| HOP-62 | 0.358 | 0.363 | 0.416 | 0.352 | 0.33 | 0.97 | 0.969 | 0.979 | 1.11 | 0.906 | 1.02 | 1.32 | 0.92 | 0.484 | 0.441 | 0.42 | 0.437 |
| IA-LM | – | – | – | – | – | 0.723 | 0.757 | 0.811 | 0.585 | 0.392 | 0.697 | 0.745 | 0.373 | – | – | – | – |
| LC-2-ad | 0.373 | 0.436 | 0.451 | – | 0.451 | 0.414 | 0.479 | 0.456 | 0.509 | 0.806 | 0.957 | 0.814 | 0.753 | 0.455 | 0.485 | 0.511 | 0.411 |
| LCLC-97TM1 | 0.183 | 0.218 | 0.172 | 0.248 | 0.207 | 0.319 | 0.394 | 0.391 | 0.376 | 0.2 | 0.183 | 0.161 | 0.212 | – | 0.232 | 0.241 | 0.19 |
| LCLC-103H | 0.391 | 0.47 | 0.441 | 0.491 | 0.522 | – | – | – | – | 0.999 | 0.974 | 1.16 | 1.16 | 0.472 | 0.471 | 0.491 | 0.499 |
| NCI-H358 | 0.0852 | 0.0998 | 0.115 | 0.102 | 0.0995 | – | – | – | – | 0.708 | 0.689 | 0.778 | 0.253 | 0.129 | 0.129 | 0.134 | 0.157 |
| NCI-H522 | 0.571 | 0.585 | 0.585 | 0.559 | 0.569 | – | – | – | – | – | – | – | – | 1.01 | 1.01 | 1.18 | 1.06 |
| NCI-H596 | 0.642 | 0.838 | 0.964 | 0.803 | 0.64 | – | 0.972 | 1.09 | 1.03 | – | 1.05 | 1.07 | 1.07 | – | – | – | – |
| NCI-H650 | 0.706 | 0.676 | 0.694 | 0.689 | 0.736 | – | – | – | – | 0.721 | 0.857 | 0.966 | 0.784 | 0.314 | 0.292 | 0.383 | 0.31 |
| NCI-H661 | 0.298 | 0.364 | 0.352 | 0.359 | 0.355 | – | – | – | – | 0.697 | 0.699 | 0.54 | 0.598 | 0.405 | 0.401 | 0.418 | 0.327 |
| NCI-H1299 | – | – | – | – | – | 1.08 | 0.996 | 1.01 | 1.03 | 1 | 0.962 | 1 | 0.88 | – | – | – | – |
| NCI-H1563 | – | – | – | – | – | – | – | – | – | 1.26 | 1.38 | 1.24 | 1.28 | – | – | – | – |
| NCI-H1623 | 0.392 | 0.469 | 0.449 | 0.441 | 0.511 | – | – | – | – | – | – | – | – | – | – | – | – |
| NCI-H1650 | 0.42 | 0.366 | 0.369 | – | 0.238 | 1.23 | 1.08 | 0.835 | 0.23 | – | – | – | – | 0.229 | 0.347 | 0.286 | 0.216 |
| NCI-H1703 | – | – | – | – | – | 1.07 | 1.29 | 0.938 | 0.319 | 0.474 | 1.25 | 0.622 | 0.411 | – | – | – | – |
| NCI-H1792 | – | – | – | – | – | 0.595 | 0.615 | 0.63 | 0.612 | 0.507 | 0.548 | 0.552 | 0.626 | 0.628 | 0.685 | 0.638 | 0.665 |
| NCI-H2170 | 0.665 | 0.654 | 0.853 | 0.749 | 0.804 | 0.545 | 0.572 | 0.524 | 0.692 | – | – | – | – | 0.418 | 0.473 | 0.389 | 0.376 |
| NCI-H2342 | 0.625 | 0.582 | 0.575 | 0.498 | 0.457 | – | – | – | – | – | – | – | – | 0.515 | 0.496 | 0.475 | 0.54 |
| SW 900 | 0.57 | 0.506 | – | 0.344 | 0.39 | – | – | – | – | – | – | – | – | – | 0.586 | 0.579 | 0.608 |
